Results: US20080227748A1, “Medicament Made From Laminarine or Oligolaminarines For Treatment of Septicemia and Septic Shock” (LABORATOIRES GOEMAR, priority 2005, published 2008)

Assay: Feeding treatment with Dectinan-enriched diet before injection of LPS (weight, consumption, glycemia, triglyceridemia, feces)
Design: species or system male Wistar Han rats
Conditions: rat, in vivo
Method: The animals selected for the abovesaid studies were male Wistar Han rats (Harlem, Netherlands).
The experiments were carried out on two groups of eight rats each.
The rats of one of the two groups—“control group”—had available to them “ad libitum” a standard feed with the AO4 trade name (UAR, France); the rats of the other group had available to them the same feed but supplemented with the above said laminarin, sold under the “Dectinan” trade name; in a first phase and for four days (−4 to −1), the feed was enriched with 5% by weight of Dectinan and then with 10% by weight in a second phase of 21 days (days 0 to 21); this second group of rats is denoted by “Dectinan group”.
The days on which the various withdrawals and measurements are made are identified in table I below.
a) Before injection of LPS • bodyweight • weight of wet feces and feces after freeze drying (collected over 24 h) • weight of the diet and of the drinking water • taking of blood from the caudal vein: quantitative determination of triglycerides and glucose
In this regard, the values mentioned later represent the mean ±SDM (Standard Deviation of the Mean). […]

For laminarin [Dectinan®], the “Total consumption of drinking water” value was 611.5 ± 17.9 mL and the “Total consumption of feed” value was 431.5 ± 6.0 g.
